In article PMC3135366 (The Journal of Experimental Medicine, 2011):

Biological target: T1, E. coli DOXPRI (Escherichia coli, UniProt P45568)
T1 sequence (P45568 1-398): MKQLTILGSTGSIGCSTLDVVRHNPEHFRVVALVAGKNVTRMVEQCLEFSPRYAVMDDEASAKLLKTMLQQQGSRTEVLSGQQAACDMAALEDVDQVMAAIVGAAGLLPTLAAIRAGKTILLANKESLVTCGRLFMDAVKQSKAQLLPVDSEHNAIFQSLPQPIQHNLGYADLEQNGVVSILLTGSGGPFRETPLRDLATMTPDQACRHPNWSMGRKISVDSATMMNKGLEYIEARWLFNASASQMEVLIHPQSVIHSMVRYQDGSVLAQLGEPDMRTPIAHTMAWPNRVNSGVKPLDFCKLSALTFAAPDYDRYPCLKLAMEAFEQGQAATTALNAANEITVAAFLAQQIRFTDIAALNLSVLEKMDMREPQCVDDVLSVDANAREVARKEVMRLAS
Test: NADPH oxidation assay
Format: biochemical

With `NC(=O)C1=CN([C@@H]2O[C@H](COP(=O)(O)OP(=O)(O)OC[C@H]3O[C@@H](n4cnc5c(N)ncnc54)[C@H](OP(=O)(O)O)[C@@H]3O)[C@@H](O)[C@H]2O)C=CC1` [NADPH] the NADPH oxidation assay was “noted robust activity for the E. coli enzyme expressed in parallel”.
